US20210045385A1, “PYRIDAZINONE-SUBSTITUTED KETOXIMES AS HERBICIDES” (FMC Corporation, priority 2018, published 2021)

Tests used:
kochia (Kochia scoparia) [1] = assay: Test A preemergence, visual plant response rating; assay type: in vivo
Procedure, shortened: (§1)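 Preemergence: seeds in loam/sand blend given directed soil spray of compound in non-phytotoxic solvent with surfactant. Postemergence: plants 2–10 cm, one- to two-leaf stage, sprayed with same formulation. Visual injury rated vs untreated controls after ~10 days in greenhouse, 0 (no effect) to 100 (complete control).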

[2] = test system: pigweed (Amaranthus retroflexus); assay: Test A preemergence, visual plant response rating; assay type: in vivo
Procedure, shortened: as §1

[3] = test system: barnyardgrass (Echinochloa crus-galli); assay: Test A preemergence, visual plant response rating; assay type: in vivo
Procedure, shortened: as §1

[4] = test system: foxtail, giant (giant foxtail, Setaria faberii); assay: Test A preemergence, visual plant response rating; assay type: in vivo
Procedure, shortened: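 Ratings 0–100 (100 = complete control), visual, vs untreated controls at ~10 days. Application pre- or postemergence; solvent mixture with surfactant; loam/sand medium.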

[5] = test system: Italian ryegrass (Lolium multiflorum); assay: Test A preemergence, visual plant response rating; assay type: in vivo
Procedure, shortened: as §1

kochia (Kochia scoparia) [6] = assay: Test A postemergence, visual plant response rating; assay type: in vivo
Procedure, shortened: as §1

[7] = test system: ragweed (common ragweed, Ambrosia elatior); assay: Test A postemergence, visual plant response rating; assay type: in vivo
Procedure, shortened: as §1

corn (Zea mays) [8] = assay: Test A postemergence, visual plant response rating; assay type: in vivo
Procedure, shortened: as §1

[9] = test system: pigweed (Amaranthus retroflexus); assay: Test A postemergence, visual plant response rating; assay type: in vivo
Procedure, shortened: as §1

[10] = test system: barnyardgrass (Echinochloa crus-galli); assay: Test A postemergence, visual plant response rating; assay type: in vivo
Procedure, shortened: as §1

[11] = test system: blackgrass (Alopecurus myosuroides); assay: Test A postemergence, visual plant response rating; assay type: in vivo
Procedure, shortened: as §1

[12] = test system: wheat (Triticum aestivum); assay: Test A postemergence, visual plant response rating; assay type: in vivo
Procedure, shortened: as §1

[13] = test system: foxtail, giant (giant foxtail, Setaria faberii); assay: Test A postemergence, visual plant response rating; assay type: in vivo
Procedure, shortened: as §1

[14] = test system: galium (catchweed bedstraw, Galium aparine); assay: Test A postemergence, visual plant response rating; assay type: in vivo
Procedure, shortened: as §1

[15] = test system: Italian ryegrass (Lolium multiflorum); assay: Test A postemergence, visual plant response rating; assay type: in vivo
Procedure, shortened: as §1

rice (Oryza sativa) [16] = assay: Test B flooded paddy test, visual plant response rating; assay type: in vivo; conditions: 250 g ai/ha, Flood, applied to paddy water, 2-leaf stage, evaluated after 13 to 15 days
Procedure, shortened: (§2)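 Rice, umbrella sedge, ducksalad and barnyardgrass grown to 2-leaf stage; pots flooded 3 cm above soil and compound applied directly to paddy water, depth maintained.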

[17] = test system: sedge, umbrella (small-flower umbrella sedge, Cyperus difformis); assay: as above; assay type: in vivo; conditions: 250 g ai/ha, Flood, applied to paddy water, 2-leaf stage, evaluated after 13 to 15 days
Procedure, shortened: as §2

[18] = test system: barnyardgrass (Echinochloa crus-galli); assay: as above; assay type: in vivo; conditions: 250 g ai/ha, Flood, applied to paddy water, 2-leaf stage, evaluated after 13 to 15 days
Procedure, shortened: as §2

[19] = test system: ducksalad (Heteranhera limosa); assay: as above; assay type: in vivo; conditions: 250 g ai/ha, Flood, applied to paddy water, 2-leaf stage, evaluated after 13 to 15 days
Procedure, shortened: as §2

[20] = test system: Italian ryegrass (Lolium mutiflorum); assay: Test C postemergence, visual plant response rating; assay type: in vivo; conditions: Test C, postemergence
Procedure, shortened: (§3)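 Visual injury on a 0 (no effect) to 100 (complete control) scale versus untreated controls, scored approximately 10 d after treatment under greenhouse conditions. Treatments used surfactant-containing non-phytotoxic solvent formulations, sprayed onto loam–sand soil preemergence or onto one- to two-leaf plants 2–10 cm tall postemergence.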

[21] = test system: foxtail, green (green foxtail, Setaria viridis); assay: Test C postemergence, visual plant response rating; assay type: in vivo
Procedure, shortened: as §3

corn (Zea mays) [22] = assay: Test C postemergence, visual plant response rating; assay type: in vivo; conditions: Test C, postemergence
Procedure, shortened: as §3

[23] = test system: ragweed (common ragweed, Ambrosia artemisiifolia); assay: Test C postemergence, visual plant response rating; assay type: in vivo; conditions: Test C, postemergence
Procedure, shortened: as §3

[24] = test system: pigweed (Amaranthus retroflexus); assay: Test C postemergence, visual plant response rating; assay type: in vivo; conditions: Test C, postemergence
Procedure, shortened: as §3

[25] = test system: barnyardgrass (Echinochloa crus-galli); assay: Test C postemergence, visual plant response rating; assay type: in vivo; conditions: Test C, postemergence
Procedure, shortened: as §3

kochia (Bassia scoparia) [26] = assay: Test C postemergence, visual plant response rating; assay type: in vivo; conditions: Test C, postemergence
Procedure, shortened: as §3

[27] = test system: blackgrass (Alopecurus myosuroides); assay: Test C postemergence, visual plant response rating; assay type: in vivo; conditions: Test C, postemergence
Procedure, shortened: as §3

[28] = test system: wheat (Triticum aestivum); assay: Test C postemergence, visual plant response rating; assay type: in vivo; conditions: Test C, postemergence
Procedure, shortened: as §3

[29] = test system: sedge umbrella (small-flower umbrella sedge, Cyperus difformis); assay: Test D flooded paddy test, visual plant response rating; assay type: in vivo; conditions: 250 g ai/ha, scale 0 to 100 (0 no effect, 100 complete control), 13 to 15 d
Procedure, shortened: (§4)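 Visual injury scores, 0 (no effect) to 100 (complete control), were assigned after 13 to 15 d in the greenhouse by comparison with controls. Test compounds had been added to paddy water covering soil by 3 cm at the 2-leaf stage.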

[30] = test system: duck salad (Heteranthera limosa); assay: as above; assay type: in vivo; conditions: 250 g ai/ha, scale 0 to 100 (0 no effect, 100 complete control), 13 to 15 d
Procedure, shortened: as §4

rice (Oryza sativa) [31] = assay: as above; assay type: in vivo; conditions: 250 g ai/ha, scale 0 to 100 (0 no effect, 100 complete control), 13 to 15 d
Procedure, shortened: as §4

[32] = test system: barnyardgrass (Echinochloa crus-galli); assay: as above; assay type: in vivo; conditions: 250 g ai/ha, scale 0 to 100 (0 no effect, 100 complete control), 13 to 15 d
Procedure, shortened: as §4

[33] = test system: Italian ryegrass (Lolium mutiflorum); assay: Test C preemergence, visual plant response rating; assay type: in vivo
Procedure, shortened: as §3

[34] = test system: foxtail, green (green foxtail, Setaria viridis); assay: Test C preemergence, visual plant response rating; assay type: in vivo
Procedure, shortened: as §3

[35] = test system: ragweed (common ragweed, Ambrosia artemisiifolia); assay: Test C preemergence, visual plant response rating; assay type: in vivo
Procedure, shortened: as §3

[36] = test system: pigweed (Amaranthus retroflexus); assay: Test C preemergence, visual plant response rating; assay type: in vivo
Procedure, shortened: as §3

[37] = test system: barnyardgrass (Echinochloa crus-galli); assay: Test C preemergence, visual plant response rating; assay type: in vivo
Procedure, shortened: as §3

kochia (Bassia scoparia) [38] = assay: Test C preemergence, visual plant response rating; assay type: in vivo
Procedure, shortened: as §3

[39] = 125 g ai/ha, preemergence, 0 to 100 scale, 0 no effect, 100 complete control
[40] = 500 g ai/ha Preemergence, approx. 10 days
[41] = 500 g ai/ha, postemergence, 0 is no effect, 100 is complete control
[42] = Postemergence, 125 g ai/ha, 0 to 100 scale (0 no effect, 100 complete control)

## CO/N=C(/c1c(O)c(C)nn(C)c1=O)c1cc(Br)cc2ccccc12 [Compound 99, 4-[(E)-(3-bromo-1-naphthalenyl)(methoxyimino)methyl]-5-hydroxy-2,6-dimethyl-3(2H)-pyridazinone]
Kochia (Kochia scoparia) [1]; [39]
  Kochia plant response rating: 70
Kochia (Kochia scoparia) [1]; [40]
  Kochia plant response rating (0 to 100 scale): 90
[2]; [39]
  Pigweed plant response rating: 90
[2]; [40]
  Pigweed plant response rating (0 to 100 scale): 100
[3]; [39]
  Barnyardgrass plant response rating: 90
[3]; [40]
  Barnyardgrass plant response rating (0 to 100 scale): 100
[4]; [39]
  Foxtail, Giant plant response rating: 100
[4]; [40]
  Foxtail, Giant plant response rating (0 to 100 scale): 100
[5]; [39]
  Ryegrass, Italian plant response rating: 90
[5]; [40]
  Ryegrass, Italian plant response rating (0 to 100 scale): 100
Kochia (Kochia scoparia) [6]; [41]
  Kochia plant response rating (0 to 100 scale): 70
Kochia (Kochia scoparia) [6]; [42]
  Kochia plant response rating: 50
[7]; [41]
  Ragweed plant response rating (0 to 100 scale): 90
[7]; [42]
  Ragweed plant response rating: 90
Corn (Zea mays) [8]; [41]
  Corn plant response rating (0 to 100 scale): 60
Corn (Zea mays) [8]; [42]
  Corn plant response rating: 30
[9]; [41]
  Pigweed plant response rating (0 to 100 scale): 100
[9]; [42]
  Pigweed plant response rating: 60
[10]; [41]
  Barnyardgrass plant response rating (0 to 100 scale): 90
[10]; [42]
  Barnyardgrass plant response rating: 80
[11]; [41]
  Blackgrass plant response rating (0 to 100 scale): 100
[11]; [42]
  Blackgrass plant response rating: 90
[12]; [41]
  Wheat plant response rating (0 to 100 scale): 80
[12]; [42]
  Wheat plant response rating: 50
[13]; [41]
  Foxtail, Giant plant response rating (0 to 100 scale): 80
[13]; [42]
  Foxtail, Giant plant response rating: 80
[14]; [41]
  Galium plant response rating (0 to 100 scale): 100
[14]; [42]
  Galium plant response rating: 90
[15]; [41]
  Ryegrass, Italian plant response rating (0 to 100 scale): 90
[15]; [42]
  Ryegrass, Italian plant response rating: 90
other
  melting point: 194 to 198 °C
Rice (Oryza sativa) [16]
  Plant response rating, Rice (0 to 100 scale, 0 is no effect, 100 is complete control): 15
[17]
  Plant response rating, Sedge, Umbrella (0 to 100 scale, 0 is no effect, 100 is complete control): 70
[18]
  Plant response rating, Barnyardgrass (0 to 100 scale, 0 is no effect, 100 is complete control): 25
[19]
  Plant response rating, Ducksalad (0 to 100 scale, 0 is no effect, 100 is complete control): 70

## Cc1nn(C)c(=O)c(/C(=N\OCc2ccccc2)c2cccc(Cl)c2)c1O [Compound 149]
[20]; 125 g ai/ha
  Ryegrass, Italian plant response rating (0 to 100 scale): 0
[20]; 500 g ai/ha
  Ryegrass, Italian plant response rating (0 to 100 scale): 10
[21]; 125 g ai/ha
  Foxtail, Green plant response rating (0 to 100 scale): 0
[21]; 500 g ai/ha
  Foxtail, Green plant response rating (0 to 100 scale): 0
Corn (Zea mays) [22]; 125 g ai/ha
  Corn plant response rating (0 to 100 scale): 0
Corn (Zea mays) [22]; 500 g ai/ha
  Corn plant response rating (0 to 100 scale): 0
[23]; 125 g ai/ha
  Ragweed plant response rating (0 to 100 scale): 0
[23]; 500 g ai/ha
  Ragweed plant response rating (0 to 100 scale): 0
[24]; 125 g ai/ha
  Pigweed plant response rating (0 to 100 scale): 0
[24]; 500 g ai/ha
  Pigweed plant response rating (0 to 100 scale): 0
[25]; 125 g ai/ha
  Barnyardgrass plant response rating (0 to 100 scale): 0
[25]; 500 g ai/ha
  Barnyardgrass plant response rating (0 to 100 scale): 0
Kochia (Bassia scoparia) [26]; 125 g ai/ha
  Kochia plant response rating (0 to 100 scale): 0
Kochia (Bassia scoparia) [26]; 500 g ai/ha
  Kochia plant response rating (0 to 100 scale): 0
[27]; 125 g ai/ha
  Blackgrass plant response rating (0 to 100 scale): 0
[27]; 500 g ai/ha
  Blackgrass plant response rating (0 to 100 scale): 0
[28]; 125 g ai/ha
  Wheat plant response rating (0 to 100 scale): 0
[28]; 500 g ai/ha
  Wheat plant response rating (0 to 100 scale): 0
[29]
  Plant response rating, Sedge, Umbrella (Flood): 0
[30]
  Plant response rating, Ducksalad (Flood): 0
Rice (Oryza sativa) [31]
  Plant response rating, Rice (Flood): 0
[32]
  Plant response rating, Barnyardgrass (Flood): 0
[33]; 125 g ai/ha
  Ryegrass, Italian plant response rating (0 to 100 scale): 0
[33]; 500 g ai/ha
  Ryegrass, Italian plant response rating (0 to 100 scale): 0
[34]; 125 g ai/ha
  Foxtail, Green plant response rating (0 to 100 scale): 0
[34]; 500 g ai/ha
  Foxtail, Green plant response rating (0 to 100 scale): 0
[35]; 125 g ai/ha
  Ragweed plant response rating (0 to 100 scale): 0
[35]; 500 g ai/ha
  Ragweed plant response rating (0 to 100 scale): 0
[36]; 125 g ai/ha
  Pigweed plant response rating (0 to 100 scale): 0
[36]; 500 g ai/ha
  Pigweed plant response rating (0 to 100 scale): 20
[37]; 125 g ai/ha
  Barnyardgrass plant response rating (0 to 100 scale): 0
[37]; 500 g ai/ha
  Barnyardgrass plant response rating (0 to 100 scale): 0
Kochia (Bassia scoparia) [38]; 125 g ai/ha
  Kochia plant response rating (0 to 100 scale): 0
Kochia (Bassia scoparia) [38]; 500 g ai/ha
  Kochia plant response rating (0 to 100 scale): 0
